From PMC9785688 (Pharmaceutics, 2022)
Like-named read-outs stand apart in the source and are kept apart here.

Experiments:
[1] = target: T1, P-glycoprotein (P-gp) function at the blood-brain barrier (BBB) (Rattus norvegicus, UniProt Q6PSM0); assay: [^11C]metoclopramide brain PET imaging with kinetic modelling (Logan plot) in rats; type: in vivo; conditions: oral pretreatment of healthy Sprague Dawley rats (CBZ 45 mg/kg twice a day for 7 days; RIT 20 mg/kg 3 h before PET)
T1 construct: Kinetic modeling was performed to estimate the impact of these drugs on P-gp function at the BBB; from tissue; host or cells: blood-brain barrier (brain) of living Sprague Dawley rats, in vivo PET
Method: In animals of the CBZ group (n = 4), CBZ suspension was administered by oral gavage at a dose of 45 mg/kg, twice a day (8 A.M and 5 P.M) for 7 days before the PET imaging. Each animal received a total of 14 doses of CBZ before the PET experiment.
A RIT suspension (10 mg/mL) was freshly prepared prior to oral administration by adding 100 mg of RIT powder to 9.4 mL of water for injection. Animals of the RIT group (n = 4) received a single dose of 20 mg/kg of RIT 3 hours before the PET experiment.
PET acquisitions were performed in Baseline, CBZ and RIT pretreated animals (n = 4 per condition) using an Inveon microPET scanner (Siemens, Knoxville, TN, USA). Anesthesia was induced and thereafter maintained using 3.5% and 1.5–2.5% isoflurane in O2, respectively.
Images were reconstructed with the Fourier rebinning algorithm and the 3-dimensional ordered-subset expectation-maximization algorithm, including normalization, attenuation, scatter, and random corrections. […] Radioactivity was corrected for ^11C decay and expressed as standardized uptake value (SUV, unitless) after correction for injected dose and animal weight. […]
Kinetic modeling was also performed using PMOD software. […] Each individual IDIF was corrected by a group-specific, average whole-blood/plasma radioactivity ratio which was obtained from the arterial blood samples collected in the separate groups of animals (see above).

P-gp = conditions: cited from earlier work
[2] = parameters: method as in PMID 30630940; conditions: humans, at 30 min, microdose; cited from earlier work
[3] = rodents, at 30 min, microdose; cited from earlier work

T1 sequence (Q6PSM0 1-1272): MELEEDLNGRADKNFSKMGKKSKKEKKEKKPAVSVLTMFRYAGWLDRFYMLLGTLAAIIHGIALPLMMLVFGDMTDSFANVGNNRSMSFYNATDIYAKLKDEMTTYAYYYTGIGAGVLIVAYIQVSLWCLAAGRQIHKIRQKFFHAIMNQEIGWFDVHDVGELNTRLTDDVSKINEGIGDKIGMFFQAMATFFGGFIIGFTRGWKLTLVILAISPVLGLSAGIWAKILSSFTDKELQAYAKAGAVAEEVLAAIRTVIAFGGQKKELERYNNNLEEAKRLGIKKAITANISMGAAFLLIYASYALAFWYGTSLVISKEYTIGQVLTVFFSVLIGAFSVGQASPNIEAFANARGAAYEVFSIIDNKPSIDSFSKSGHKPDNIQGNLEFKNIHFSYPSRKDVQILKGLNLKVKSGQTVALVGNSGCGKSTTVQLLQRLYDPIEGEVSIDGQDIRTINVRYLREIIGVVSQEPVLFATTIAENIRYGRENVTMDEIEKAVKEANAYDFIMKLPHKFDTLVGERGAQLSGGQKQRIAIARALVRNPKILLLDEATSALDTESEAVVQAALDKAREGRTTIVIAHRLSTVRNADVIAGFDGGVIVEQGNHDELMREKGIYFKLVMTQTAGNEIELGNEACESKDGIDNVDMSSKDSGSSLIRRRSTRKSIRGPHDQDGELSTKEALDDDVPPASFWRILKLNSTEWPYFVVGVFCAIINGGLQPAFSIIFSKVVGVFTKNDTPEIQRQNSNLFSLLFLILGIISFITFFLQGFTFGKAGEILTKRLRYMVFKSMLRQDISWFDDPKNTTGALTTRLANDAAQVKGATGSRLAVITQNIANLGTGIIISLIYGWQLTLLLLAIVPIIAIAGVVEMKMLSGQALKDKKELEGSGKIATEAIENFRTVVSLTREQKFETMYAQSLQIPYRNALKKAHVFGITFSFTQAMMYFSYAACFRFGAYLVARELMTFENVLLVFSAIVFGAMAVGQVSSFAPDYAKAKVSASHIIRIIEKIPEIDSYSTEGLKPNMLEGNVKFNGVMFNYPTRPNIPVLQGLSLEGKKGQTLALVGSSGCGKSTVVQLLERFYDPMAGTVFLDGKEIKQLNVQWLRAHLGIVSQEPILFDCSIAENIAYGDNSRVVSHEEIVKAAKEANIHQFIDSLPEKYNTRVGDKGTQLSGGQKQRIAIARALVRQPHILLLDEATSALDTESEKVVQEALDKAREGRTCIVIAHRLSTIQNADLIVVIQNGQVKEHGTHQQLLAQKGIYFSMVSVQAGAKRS

| SMILES | Effect on P-gp function at the BBB (from [^11C]metoclopramide PET) [1] | P-gp inhibition in vitro (P-gp) | Fraction of parent [^11C]metoclopramide [2] | Fraction of parent [^11C]metoclopramide [3] |
| --- | --- | --- | --- | --- |
| NC(=O)N1c2ccccc2C=Cc2ccccc21 [CBZ, carbamazepine] | does not substantially induce or inhibit | – | – | – |
| CC(C)c1nc(CN(C)C(=O)N[C@H](C(=O)N[C@@H](Cc2ccccc2)C[C@H](O)[C@H](Cc2ccccc2)NC(=O)OCc2cncs2)C(C)C)cs1 [RIT, ritonavir] | apparently behaving as an inhibitor | potent P-gp inhibitor | – | – |
| CCN(CC)CCNC(=O)c1cc(Cl)c(N)cc1O[11CH3] [[^11C]metoclopramide] | – | – | ~ 60% | ~ 10% |
